From US12116371B2, “Substituted pyridines as irreversible inhibitors of menin-MLL interaction” (BIOMEA FUSION, INC., priority 2018, dated 2024)
Like-named read-outs stand apart in the source and are kept apart here.

Assays:
RS4-11 (MLL-AF4) cells = experiment: Long-term proliferation (LTP) assay, CellTiterGlo (Example 103); format: cell-based; conditions: for IC50: Homo sapiens, RS4-11 (MLL-AF4), LTP assay; for effect on cell viability at T4: RS4;11, increasing concentrations
Protocol: (§1) The day of the experiment (TO) all the cell line suspensions were counted by Cell Viability Analyser, Vi-CELL and properly diluted with fresh medium to obtain the cell density reported in the Test System paragraph.
(§2) Cells were tested after 4 passages after thawing.
(§3) 200 μL/well and 150 μL/well of cell suspension were added into the 0.4 µL/well and 0.3 μL/well compound plates, respectively. • Cell plate containing 200 μL/well suspension was incubated at 37° C. in a humidified incubator with 5% CO2. • From each well of the 150 µL/well cell assay plate, 100 μL were harvested and transferred into a 96-well Optiplate (Perkin Elmer, Cat. n. 6005290) and cell viability was measured as described in 4.3 paragraphs (TO). • After four days in culture (T4) 150 μL/well of fresh medium were added into a new […] copy compound plate. • From each well of the 200 μL/well cell assay plate: • 100 μL were sampled for the cell viability measurement as described in 4.3 paragraphs (T4). • 50 μL were harvested and added to the 150 μL/well compound plate prepared as described in the first point to dilute 1:4 the cell suspension. • The cell assay plate diluted and containing 200 µL/well suspension were incubated at 37° C. in a humidified incubator with 5% CO2.
(§4) At T7-T11-T14 it was proceeded as described in T4, with the exception that no further cell dilution was carried out at T14.
(§5) Plates containing the samples to be tested were equilibrated at room temperature for approximately 30 min and then 30 μL/well of the Promega CellTiterGlo® reagent were added. Contents will be mixed for 5 min on an orbital shaker to induce cell lysis and then incubated at room temperature for an additional 10 min to stabilize the luminescent signal.
(§6) Luminescence was read by using VictorV (Perkin Elmer) multilabel plate reader using the standard protocol for luminescence in 96 well plate.
(§7) Data were expressed as % of inhibition compared to the 0.2% DMSO negative control, and was calculated as follows: % inhibition=100−[(RLU sample)×100/(RLU average controls*)] • *cells containing 0.2% DMSO
(§8) CRCs were analysed by GraphPad and IC50 values were calculated by non-linear regression using 4 parameter-logistic equation. IC50 (M) values were reported in the final data table.

HL-60 cells [1] = experiment: as above; format: cell-based; conditions: for IC50: Homo sapiens
Protocol: as §1, §2, §3, §4, §5, §6, §7, §8

MV4-11 (MLL-AF4) cells [2] = experiment: as above; format: cell-based, human; conditions: for IC50: Homo sapiens, MV4-11 (MLL-AF4), LTP assay
Protocol: as §1, §2, §3, §4, §5, §6, §7, §8

MOLM-13 (MLL-AF9) cells [3] = experiment: as above; format: cell-based, human; conditions: for IC50: Homo sapiens, MOLM-13 (MLL-AF9), LTP assay
Protocol: as §1, §2, §3, §4, §5, §6, §7, §8

MV4-11 (MLL-AF4) cells [4] = experiment: Cell proliferation inhibition, CellTiterGlo viability assay, 4 days (Example 102); format: cell-based, human; conditions: 4 days treatment
From the text: (§9) The objective of the study was to evaluate the ability of compounds of the invention, inhibitors of Menin/MLL interaction to inhibit cell proliferation. The proliferation inhibitory effect was investigated in two human MLL-leukemia cells selected on the bases of MLL fusion protein and listed in Table 1. HL-60 cell line was used as negative control (Table 3).
(§10) ATP is present in all metabolically active cells and is considered as a marker for cell viability and proliferation. The metabolic cell activity was determined using the CellTiter-Glo kit from Promega, an ATP monitoring system based on the production of luminescence by the reaction of ATP with added UltraGlo® recombinant luciferase (Kawano et al., 2016), according to the supplier's experimental recommendations.
(§11) The described assay evaluates the ability of representative compounds of invention to inhibit the cell proliferation in the human MLL-leukemia cells plus a negative control cell line.
(§12) The assay provides potency values (IC50) for each test compound at a single time point Day 4 (T4).
(§13) Seven concentrations of the NCEs (2.00E-05-6.67E-06-2.22E-06-7.41E-07-2.47E-07-8.23E-08-2.74E-08M), were assessed in duplicate in an individual test occasion in all the cell lines. MI-503 (Borkin et al., 2015) was used as reference compound and was tested at the same concentrations as the NCEs. 100% of proliferation is represented by the untreated cells (0.2% DMSO). The cell growth was monitored up to 4 days in culture.
(§14) MV4-11, MOLM-13 and HL-60 cells (see Table 2) were maintained in RPMI-1640 medium (Invitrogen, Cat. n. 618700, Batch n. 1965930) supplemented with 10% of Heat Inactivated FBS (Invitrogen, Cat n. 10500, Batch n. 08Q8078K) and 1% Pen-Strep (Invitrogen, Cat. N. 15140, Batch n. 1910859) and cultured at 37° C. in a humidified incubator with 5% CO2. All the cell lines grow in suspension and the cell density was maintained in a range of 2×10^5-1×10^6 viable cells/ml. Cells were pelleted at 130 g×5 min and conditioned medium was used to dilute the cell suspension.
(§15) Cells were plated in 96-well flat bottom microtiter plates at cell density of 15,000 cells/ml for HL-60, 1000 cells/ml for MOLM-13 and 10,000 cell/ml for MV4-11. Cells were treated with 0.2% DMSO (Sigma, D8418, batch n. SHBH4245V) or serial dilutions of compounds ([…]) in DMSO (0.2% final concentration). Cells were incubated in a 5% CO2 incubator at 37° C. for 4 days. A CellTiterGlo viability assay (Promega) was employed. Luminescence was read by using VictorV (Perkin Elmer) multilabel plate reader using the standard protocol for luminescence in 96 well plate. The experiment was performed in duplicate.
(§16) Data were expressed as % of inhibition compared to the 0.2% DMSO negative control, and was calculated as follows: % inhibition=100−[(RLU sample)×100/(RLU average controls*)]*cells containing 0.2% DMSO
(§17) CRCs were analysed by GraphPad and IC50 values were calculated by non-linear regression using 4 parameter-logistic equation. IC50 (μM) values were reported in the final data table. The curve fittings were performed leaving free all the parameters. Any constrain were reported in the results table.

MOLM-13 (MLL-AF9) cells [5] = experiment: as above; format: cell-based, human; conditions: 4 days treatment
From the text: as §9, §10, §11, §12, §13, §14, §15, §16, §17

HL-60 cells [6] = experiment: as above; format: cell-based; conditions: 4 days treatment
From the text: as §9, §10, §11, §12, §13, §14, §15, §16, §17

[7] = 96 h, Day 4, read-out: Day 4 IC50
[8] = 168 h, Day 7, read-out: Day 7 IC50
[9] = 264 h, Day 11, read-out: Day 11 IC50
[10] = 264 h, Day 11, LTP assay, read-out: Day 11 IC50
[11] = 336 h, Day 14, read-out: Day 14 IC50
[12] = 96 h, Day 4, LTP assay, read-out: Day 4 IC50
[13] = 168 h, Day 7, LTP assay, read-out: Day 7 IC50
[14] = 336 h, Day 14, LTP assay, read-out: Day 14 IC50
[15] = Homo sapiens, 96 h, read-out: IC50
[16] = Homo sapiens, 96 h, read-out: pIC50 (converted)

Structure (SMILES): C=CC(=O)NC1CN(c2ccnc(NC(=O)Nc3ccc(-c4nc5c(N6CCOCC6)nccc5[nH]4)cc3)c2)C1 [Compound 23]
- IC50 (RS4-11 (MLL-AF4) cells; [7]): 1480 nM
- IC50 (RS4-11 (MLL-AF4) cells; [8]): 930 nM
- IC50 (RS4-11 (MLL-AF4) cells; [9]): > 5000 nM
- effect on cell viability at T4 (RS4-11 (MLL-AF4) cells): showed an effect
- IC50 (HL-60 cells [1]; [10]): > 5000 nM
- activity up to T14 (HL-60 cells [1]; up to T14): absence of activity
- IC50 (MV4-11 (MLL-AF4) cells [2]; [8]): 4370 nM
- IC50 (MV4-11 (MLL-AF4) cells [2]; [9]): 1700 nM
- IC50 (MV4-11 (MLL-AF4) cells [2]; [11]): 1230 nM
- change of effect with the time in culture (MV4-11 (MLL-AF4) cells [2]; MV4-11, along the 14 days in culture): increase of the effect
- IC50 (MOLM-13 (MLL-AF9) cells [3]; 96 h, heading: Day 4 IC50, Day 4, read-out: Day 4 IC50): > 5000 nM
- IC50 (MOLM-13 (MLL-AF9) cells [3]; 168 h, heading: Day 7 IC50, Day 7, read-out: Day 7 IC50): > 5000 nM
- IC50 (MOLM-13 (MLL-AF9) cells [3]; [9]): 1410 nM
- IC50 (MOLM-13 (MLL-AF9) cells [3]; [11]): 3890 nM
- change of effect with the time in culture (MOLM-13 (MLL-AF9) cells [3]; MOLM-13, along the 14 days in culture): increase of the effect

Structure (SMILES): CN(C)C/C=C/C(=O)NC1CN(c2ccnc(NC(=O)Nc3ccc(-c4cc5c(N6CCOCC6)ncnc5[nH]4)cc3)c2)C1 [Compound 15]
- IC50 (RS4-11 (MLL-AF4) cells; [7]): 1450 nM
- IC50 (RS4-11 (MLL-AF4) cells; [8]): 1550 nM
- IC50 (RS4-11 (MLL-AF4) cells; [9]): > 5000 nM
- effect on cell viability at T4 (RS4-11 (MLL-AF4) cells): fully inhibited
- IC50 (HL-60 cells [1]; [12]): 1150 nM
- IC50 (HL-60 cells [1]; [13]): 680 nM
- IC50 (HL-60 cells [1]; [10]): 850 nM
- IC50 (HL-60 cells [1]; [14]): 890 nM
- effect on cell viability at T4 (HL-60 cells [1]; T4, increasing concentrations): fully inhibited
- IC50 (MV4-11 (MLL-AF4) cells [2]; [7]): 650 nM
- IC50 (MV4-11 (MLL-AF4) cells [2]; [8]): 460 nM
- IC50 (MV4-11 (MLL-AF4) cells [2]; [9]): 350 nM
- IC50 (MV4-11 (MLL-AF4) cells [2]; [11]): 350 nM
- effect on cell viability at T4 (MV4-11 (MLL-AF4) cells [2]; MV4-11, T4, increasing concentrations): fully inhibited
- IC50 (MOLM-13 (MLL-AF9) cells [3]; [7]): 1020 nM
- IC50 (MOLM-13 (MLL-AF9) cells [3]; [8]): 410 nM
- IC50 (MOLM-13 (MLL-AF9) cells [3]; [9]): 320 nM
- IC50 (MOLM-13 (MLL-AF9) cells [3]; [11]): 330 nM
- effect on cell viability at T4 (MOLM-13 (MLL-AF9) cells [3]; MOLM-13, T4, increasing concentrations): fully inhibited

Structure (SMILES): C=CC(=O)NC1CN(c2ccnc(NC(=O)Nc3ccc(-c4cc5c(N6CCOCC6)ncnc5[nH]4)cc3)c2)C1 [Compound 1]
- IC50 (RS4-11 (MLL-AF4) cells; [7]): 550 nM
- IC50 (RS4-11 (MLL-AF4) cells; [8]): 112 nM
- IC50 (RS4-11 (MLL-AF4) cells; [9]): > 5000 nM
- IC50 (HL-60 cells [1]; [12]): 790 nM
- IC50 (HL-60 cells [1]; [13]): 600 nM
- IC50 (HL-60 cells [1]; [10]): 780 nM
- IC50 (HL-60 cells [1]; [14]): 890 nM
- IC50 (MV4-11 (MLL-AF4) cells [2]; [7]): 760 nM
- IC50 (MV4-11 (MLL-AF4) cells [2]; [8]): 580 nM
- IC50 (MV4-11 (MLL-AF4) cells [2]; [9]): 550 nM
- IC50 (MV4-11 (MLL-AF4) cells [2]; [11]): 380 nM
- IC50 (MOLM-13 (MLL-AF9) cells [3]; [7]): 830 nM
- IC50 (MOLM-13 (MLL-AF9) cells [3]; [8]): 450 nM
- IC50 (MOLM-13 (MLL-AF9) cells [3]; [9]): 500 nM
- IC50 (MOLM-13 (MLL-AF9) cells [3]; [11]): 720 nM
- % max (MV4-11 (MLL-AF4) cells [4]): 98%
- IC50 (MV4-11 (MLL-AF4) cells [4]; [15]): 150 nM
- IC50 (MV4-11 (MLL-AF4) cells [4]; [16]): 151 nM
- % max (MOLM-13 (MLL-AF9) cells [5]): 85%
- IC50 (MOLM-13 (MLL-AF9) cells [5]; [15]): 200 nM
- IC50 (MOLM-13 (MLL-AF9) cells [5]; [16]): 200 nM
- % max (HL-60 cells [6]; CellTiterGlo): 80%
- IC50 (HL-60 cells [6]; Homo sapiens, 96 h, CellTiterGlo, read-out: pIC50 (converted)): 195 nM
- IC50 (HL-60 cells [6]; [15]): 190 nM

Structure (SMILES): Cc1c(CN2CCC(Nc3ncnc4sc(CC(F)(F)F)cc34)CC2)ccc2c1cc(C#N)n2Cc1cn[nH]c1 [MI-503, reference compound]
- % max (MV4-11 (MLL-AF4) cells [4]): 100%
- pIC50 (MV4-11 (MLL-AF4) cells [4]): 6.73
- IC50 (MV4-11 (MLL-AF4) cells [4]; read-out: IC50): 190 nM
- % max (MOLM-13 (MLL-AF9) cells [5]): 98%
- pIC50 (MOLM-13 (MLL-AF9) cells [5]): 6.63
- IC50 (MOLM-13 (MLL-AF9) cells [5]; read-out: IC50): 230 nM
- % max (HL-60 cells [6]; CellTiterGlo): 103%
- pIC50 (HL-60 cells [6]; CellTiterGlo): 6.38
- IC50 (HL-60 cells [6]; CellTiterGlo, read-out: IC50): 420 nM
